Reference: patent US20220267268A1, “NEW TRICYCLIC 5-HT2 ANTAGONISTS” (Anamar AB, priority 2019, published 2022)
Where a name gives a salt, the structure may show the parent alone. Marks after values point to notes of the source that are not given here.

Key:
5-HT2B receptor [1] = target: T1, 5-HT2B receptor (Homo sapiens, UniProt P41595); test: 5-HT2B receptor antagonism, inhibition of 5-HT stimulated IP-1 accumulation (HTRF) in CHO-K1 cells; type: cell-based; settings: 5-HT (5 nM) stimulated IP-1 accumulation
T1 construct: host or cells: CHO-K1
Protocol: (§1) 5-HT2B receptor antagonism (performed at Eurofins Panlabs Taiwan, Ltd.) was determined in CHO-K1 cells expressing human receptor protein as inhibition of 5-HT (5 nM) stimulated IP-1 accumulation measured by HTRF quantitation. SB 206553 was used as a standard reference compound. The antagonistic response is expressed as % inhibition of the 5-HT induced effect, see Table 2.

5-HT2B receptor [2] = target: T1, 5-HT2B receptor; test: 5-HT2B receptor binding, ligand displacement assay with 3H-LSD radioligand; settings: human receptor in CHO-K1; for inhibition at 0.001 µM: 1 nM compound; for inhibition at 0.01 µM: 10 nM compound; for inhibition at 0.1 µM: 100 nM compound
Protocol: (§2) 5-HT2B receptor binding (performed at Eurofins Panlabs Taiwan, Ltd.) to human receptor protein expressed in CHO-K1 cells was determined in a ligand displacement assay using ^3H-lysergic acid diethylamide (LSD) as radioligand and ketanserine as a standard reference compound, or alternatively*, with ^3H-mesulergine and SB 206553 as reference. Data is presented as % displacement of radioligand at indicated compound concentrations, see Table 1.

5-HT2B receptor [3] = target: T1, 5-HT2B receptor; test: 5-HT2B receptor agonism, IP-1 accumulation in CHO-K1 cells without prior 5-HT stimulation; type: cell-based; settings: % of IP-1 accumulation induced by 5-HT (1 uM)
Protocol: as §1
5-HT2B receptor agonism (performed at Eurofins Panlabs Taiwan, Ltd.) was determined in the same model as described above in Example 50 without prior stimulation with 5-HT. The agonistic response is expressed as % of the IP-1 accumulation induced by 5-HT (1 uM) stimulation, see Table 3.

5-HT2B receptor [4] = target: T1, 5-HT2B receptor; test: 5-HT2B receptor binding, ligand displacement assay, alternative (*) with 3H-mesulergine; settings: * 3H-mesulergine radioligand, SB 206553 reference; for 5-HT2B receptor binding (% displacement) 1 nM: 1 nM compound; for inhibition at 0.01 µM: 10 nM compound; for 5-HT2B receptor binding (% displacement) 100 nM: 100 nM compound
Protocol: as §2

T1 sequence (P41595 whole entry): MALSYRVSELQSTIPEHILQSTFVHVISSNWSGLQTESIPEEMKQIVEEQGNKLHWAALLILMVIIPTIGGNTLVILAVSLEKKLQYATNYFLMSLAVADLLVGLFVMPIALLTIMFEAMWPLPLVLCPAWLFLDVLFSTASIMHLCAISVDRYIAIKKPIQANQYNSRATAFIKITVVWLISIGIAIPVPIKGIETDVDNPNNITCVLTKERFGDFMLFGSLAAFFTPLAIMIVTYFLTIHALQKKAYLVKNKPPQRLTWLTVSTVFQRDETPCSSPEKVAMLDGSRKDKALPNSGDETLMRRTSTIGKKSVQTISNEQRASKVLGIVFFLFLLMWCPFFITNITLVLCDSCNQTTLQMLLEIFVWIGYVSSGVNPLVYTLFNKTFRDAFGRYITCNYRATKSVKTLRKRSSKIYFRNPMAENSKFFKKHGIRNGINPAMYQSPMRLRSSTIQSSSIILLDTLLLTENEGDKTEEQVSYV

CC1CN(C(=N)N)c2ccc3cc(F)ccc3c21.Cl (stereo not shown) [Example 1, 7-Fluoro-1-methyl-1,2-dihydro-3H-benzo[e]indole-3-carboximidamide hydrochloride]
inhibition at 0.001 µM (5-HT2B receptor [1]; 1 nM compound): 2% | inhibition at 0.01 µM (5-HT2B receptor [1]; 10 nM compound): 14% | inhibition at 0.1 µM (5-HT2B receptor [1]; 100 nM compound): 80% | inhibition at 1 µM (5-HT2B receptor [1]; 1000 nM compound): 97% | inhibition at 0.001 µM (5-HT2B receptor [2]): 9% | inhibition at 0.01 µM (5-HT2B receptor [2]): 49% | inhibition at 0.1 µM (5-HT2B receptor [2]): 88% | 5-HT2B receptor agonism (% of positive control) 1 nM (5-HT2B receptor [3]; 1 nM compound): −1% | 5-HT2B receptor agonism (% of positive control) 10 nM (5-HT2B receptor [3]; 10 nM compound): 2% | 5-HT2B receptor agonism (% of positive control) 100 nM (5-HT2B receptor [3]; 100 nM compound): 7% | 5-HT2B receptor agonism (% of positive control) 1000 nM (5-HT2B receptor [3]; 1000 nM compound): 0%

CC1CN(C(=N)N)c2ncc3ccccc3c21 (stereo not shown) [Example 4, 1-Methyl-1,2-dihydro-3H-pyrrolo[2,3-c]isoquinoline-3-carboximidamide hydrochloride]
inhibition at 0.001 µM (5-HT2B receptor [2]): -1% | inhibition at 0.01 µM (5-HT2B receptor [2]): 16% | inhibition at 0.1 µM (5-HT2B receptor [2]): 64%

CC1CN(C(=N)N)c2cnc3ccccc3c21 (stereo not shown) [Example 5, 1-Methyl-1,2-dihydro-3H-pyrrolo[2,3-c]quinoline-3-carboximidamide hydrochloride]
inhibition at 0.001 µM (5-HT2B receptor [2]): 11% | inhibition at 0.01 µM (5-HT2B receptor [2]): 28% | inhibition at 0.1 µM (5-HT2B receptor [2]): 71%

CNC(=N)N1CC(C)c2c1ccc1ccccc21 (stereo not shown) [Example 6, N,1-Dimethyl-1,2-dihydro-3H-benzo[e]indole-3-carboximidamide hydrochloride]
inhibition at 0.001 µM (5-HT2B receptor [2]): 18% | inhibition at 0.01 µM (5-HT2B receptor [2]): 57% | inhibition at 0.1 µM (5-HT2B receptor [2]): 93%

CCCCNC(=N)N1CC(C)c2c1ccc1ccccc21 (stereo not shown) [Example 7, N-Butyl-1-methyl-1,2-dihydro-3H-benzo[e]indole-3-carboximidamide hydrochloride]
inhibition at 0.001 µM (5-HT2B receptor [2]): 32% | inhibition at 0.01 µM (5-HT2B receptor [2]): 77% | inhibition at 0.1 µM (5-HT2B receptor [2]): 96%

CC1CN(C(=N)NCc2ccccc2)c2ccc3ccccc3c21 (stereo not shown) [Example 8, N-Benzyl-1-methyl-1,2-dihydro-3H-benzo[e]indole-3-carboximidamide hydrochloride]
inhibition at 0.001 µM (5-HT2B receptor [2]): 30% | inhibition at 0.01 µM (5-HT2B receptor [2]): 80% | inhibition at 0.1 µM (5-HT2B receptor [2]): 99%

CC1CN(C(=N)NCc2ccc(Cl)cc2)c2ccc3ccccc3c21 (stereo not shown) [Example 9, N-(4-Chlorobenzyl)-1-methyl-1,2-dihydro-3H-benzo[e]indole-3-carboximidamide hydrochloride]
inhibition at 0.001 µM (5-HT2B receptor [2]): 26% | inhibition at 0.01 µM (5-HT2B receptor [2]): 55% | inhibition at 0.1 µM (5-HT2B receptor [2]): 95%

CC1CN(C(=N)NCc2ccc(F)c(F)c2)c2ccc3ccccc3c21 (stereo not shown) [Example 10, N-(3,4-Difluorobenzyl)-1-methyl-1,2-dihydro-3H-benzo[e]indole-3-carboximidamide hydrochloride]
inhibition at 0.001 µM (5-HT2B receptor [2]): 7% | inhibition at 0.01 µM (5-HT2B receptor [2]): 50% | inhibition at 0.1 µM (5-HT2B receptor [2]): 91%

CCCCNC(=N)N1CC(C)c2c1ccc1c(Br)cccc21 (stereo not shown) [Example 15, 6-Bromo-N-butyl-1-methyl-1,2-dihydro-3H-benzo[e]indole-3-carboximidamide 2,2,2-trifluoroacetic acid salt]
inhibition at 0.01 µM (5-HT2B receptor [2]): 103%

C#CCNC(=N)N1CC(C)c2c1ccc1c(Br)cccc21 (stereo not shown) [Example 18, 6-Bromo-1-methyl-N-(prop-2-yn-1-yl)-1,2-dihydro-3H-benzo[e]indole-3-carboximidamide 2,2,2-trifluoroacetic acid salt]
inhibition at 0.01 µM (5-HT2B receptor [2]): 104%

CC1CN(C(=N)NCC(F)(F)F)c2ccc3c(Br)cccc3c21 (stereo not shown) [Example 22, 6-Bromo-1-methyl-N-(2,2,2-trifluoroethyl)-1,2-dihydro-3H-benzo[e]indole-3-carboximidamide 2,2,2-trifluoroacetic acid salt]
inhibition at 0.01 µM (5-HT2B receptor [2]): 95%

COCCNC(=N)N1CC(C)c2c1ccc1c(Br)cccc21 (stereo not shown) [Example 23, 6-Bromo-N-(2-methoxyethyl)-1-methyl-1,2-dihydro-3H-benzo[e]indole-3-carboximidamide 2,2,2-trifluoroacetic acid salt]
inhibition at 0.01 µM (5-HT2B receptor [2]): 100%

CC1CN(C(=N)NCc2ccc(F)cc2)c2ccc3c(Br)cccc3c21 (stereo not shown) [Example 26, 6-Bromo-N-(4-fluorobenzyl)-1-methyl-1,2-dihydro-3H-benzo[e]indole-3-carboximidamide 2,2,2-trifluoroacetic acid salt]
inhibition at 0.001 µM (5-HT2B receptor [2]): 43% | inhibition at 0.01 µM (5-HT2B receptor [2]): 90% | inhibition at 0.1 µM (5-HT2B receptor [2]): 98%

CC1CN(C(=N)Nc2ccc(F)cc2)c2ccc3c(Br)cccc3c21 (stereo not shown) [Example 30, 6-Bromo-N-(4-fluorophenyl)-1-methyl-1,2-dihydro-3H-benzo[e]indole-3-carboximidamide 2,2,2-trifluoroacetic acid salt]
inhibition at 0.01 µM (5-HT2B receptor [2]): 105%

CC1CN(C(=N)N)c2ccc3c(I)cccc3c21 (stereo not shown) [Example 34, 6-Iodo-1-methyl-1,2-dihydro-3H-benzo[e]indole-3-carboximidamide 2,2,2-trifluoroacetic acid salt]
5-HT2B receptor binding (% displacement) 1 nM (5-HT2B receptor [4]): 30* % | inhibition at 0.01 µM (5-HT2B receptor [4]): 88% | 5-HT2B receptor binding (% displacement) 100 nM (5-HT2B receptor [4]): 102* %

CC1CN(C(=N)N)c2ccc3c(C(F)(F)F)cccc3c21 (stereo not shown) [Example 35, 1-Methyl-6-(trifluoromethyl)-1,2-dihydro-3H-benzo[e]indole-3-carboximidamide 2,2,2-trifluoroacetic acid salt]
inhibition at 0.001 µM (5-HT2B receptor [2]): 11% | inhibition at 0.01 µM (5-HT2B receptor [2]): 61% | inhibition at 0.1 µM (5-HT2B receptor [2]): 92% | 5-HT2B receptor binding (% displacement) 1 nM (5-HT2B receptor [4]): 21% | inhibition at 0.01 µM (5-HT2B receptor [4]): 52% | 5-HT2B receptor binding (% displacement) 100 nM (5-HT2B receptor [4]): 91%

COc1cccc2c3c(ccc12)N(C(=N)N)CC3C (stereo not shown) [Example 36, 6-Methoxy-1-methyl-1,2-dihydro-3H-benzo[e]indole-3-carboximidamide 2,2,2-trifluoroacetic acid salt]
5-HT2B receptor binding (% displacement) 1 nM (5-HT2B receptor [4]): 10* % | inhibition at 0.01 µM (5-HT2B receptor [4]): 48% | 5-HT2B receptor binding (% displacement) 100 nM (5-HT2B receptor [4]): 90* %

CSc1cccc2c3c(ccc12)N(C(=N)N)CC3C (stereo not shown) [Example 37, 1-Methyl-6-(methylthio)-1,2-dihydro-3H-benzo[e]indole-3-carboximidamide 2,2,2-trifluoroacetic acid salt]
5-HT2B receptor binding (% displacement) 1 nM (5-HT2B receptor [4]): 5* % | inhibition at 0.01 µM (5-HT2B receptor [4]): 53% | 5-HT2B receptor binding (% displacement) 100 nM (5-HT2B receptor [4]): 94* %

CC1CN(C(=N)N)c2ccc3c([S+](C)[O-])cccc3c21 (stereo not shown) [Example 38, 1-Methyl-6-(methylsulfinyl)-1,2-dihydro-3H-benzo[e]indole-3-carboximidamide 2,2,2-trifluoroacetic acid salt]
5-HT2B receptor binding (% displacement) 1 nM (5-HT2B receptor [4]): 4* % | inhibition at 0.01 µM (5-HT2B receptor [4]): 7% | 5-HT2B receptor binding (% displacement) 100 nM (5-HT2B receptor [4]): 20* %

CC1CN(C(=N)N)c2ccc3c(S(C)(=O)=O)cccc3c21 (stereo not shown) [Example 39, 1-Methyl-6-(methylsulfonyl)-1,2-dihydro-3H-benzo[e]indole-3-carboximidamide 2,2,2-trifluoroacetic acid salt]
5-HT2B receptor binding (% displacement) 1 nM (5-HT2B receptor [4]): 6* % | inhibition at 0.01 µM (5-HT2B receptor [4]): 8% | 5-HT2B receptor binding (% displacement) 100 nM (5-HT2B receptor [4]): 28* %

C#Cc1cccc2c3c(ccc12)N(C(=N)N)CC3C (stereo not shown) [Example 40, 6-Ethynyl-1-methyl-1,2-dihydro-3H-benzo[e]indole-3-carboximidamide 2,2,2-trifluoroacetic acid salt]
5-HT2B receptor binding (% displacement) 1 nM (5-HT2B receptor [4]): 26* % | inhibition at 0.01 µM (5-HT2B receptor [4]): 64% | 5-HT2B receptor binding (% displacement) 100 nM (5-HT2B receptor [4]): 94* %

CC1CN(C(=N)N)c2ccc3c(-c4ccccc4)cccc3c21 (stereo not shown) [Example 41, 1-Methyl-6-phenyl-1,2-dihydro-3H-benzo[e]indole-3-carboximidamide hydrochloride]
inhibition at 0.001 µM (5-HT2B receptor [2]): 0% | inhibition at 0.01 µM (5-HT2B receptor [2]): 7% | inhibition at 0.1 µM (5-HT2B receptor [2]): 40%

CC1CN(C(=N)N)c2ccc3c(C4CC4)cccc3c21 (stereo not shown) [Example 42, 6-Cyclopropyl-1-methyl-1,2-dihydro-3H-benzo[e]indole-3-carboximidamide hydrochloride]
inhibition at 0.001 µM (5-HT2B receptor [2]): 1% | inhibition at 0.01 µM (5-HT2B receptor [2]): 56% | inhibition at 0.1 µM (5-HT2B receptor [2]): 96%

CCCc1cccc2c3c(ccc12)N(C(=N)N)CC3C (stereo not shown) [Example 43, 1-Methyl-6-propyl-1,2-dihydro-3H-benzo[e]indole-3-carboximidamide hydrochloride]
inhibition at 0.001 µM (5-HT2B receptor [2]): 21% | inhibition at 0.01 µM (5-HT2B receptor [2]): 70% | inhibition at 0.1 µM (5-HT2B receptor [2]): 96%

COc1cc2c(c3ccccc13)C(C)CN2C(=N)N (stereo not shown) [Example 44, 5-Methoxy-1-methyl-1,2-dihydro-3H-benzo[e]indole-3-carboximidamide hydrochloride]
inhibition at 0.001 µM (5-HT2B receptor [2]): 9% | inhibition at 0.01 µM (5-HT2B receptor [2]): 13% | inhibition at 0.1 µM (5-HT2B receptor [2]): 70%

CC1CN(C(=N)N)c2cc(F)c3c(Cl)cccc3c21 (stereo not shown) [Example 45, 6-Chloro-5-fluoro-1-methyl-1,2-dihydro-3H-benzo[e]indole-3-carboximidamide hydrochloride]
inhibition at 0.001 µM (5-HT2B receptor [2]): 77% | inhibition at 0.01 µM (5-HT2B receptor [2]): 100% | inhibition at 0.1 µM (5-HT2B receptor [2]): 98%
